Assay results from patent US20240358727A1, “MICROSCALE THERMOPHORESIS TO EVALUATE CHANNEL LIPID INTERACTIONS AND METHODS OF TREATING NAV CHANNELS RELATED DISEASES” (Northeastern University, priority 2023, published 2024).

Legend:
Nav1.4 = molecular target: T1, Nav1.4 (Rattus norvegicus, UniProt P15390); assay: Whole-cell patch clamp of rNav1.4 + Navβ1 in HEK293T cells with optogenetic PI-phosphatases and diC8PI(4,5)P2 in the pipette; assay type: cell-based; conditions: for ILATE: % of IPEAK
T1 construct: expressed in transfected cells; host or cells: HEK293T (ATCC CRL-3216)
Source text: Purified diC8PI(4,5)P2 was purchased from Echelon Biosciences. For oocyte studies, plasmid vectors were linearized after the Xenopus β-globulin domain of each construct, verified by gel electrophoresis, and transcribed in vitro using the mMESSAGE mMACHINE T7 Transcription Kit (Thermo Fisher Scientific) to generate cRNA according to the manufacturer's protocol. Rat Nav1.4 (SCN4 Å; NM_013178.2) was handled in pBud, a CMV driven vector. To study Nav1.4 currents, the plasmid was used in concert with Navβ1 (SCN1B, isoform b; NM_001037) in pRAT, a CMV driven vector. The inactivation deficient mutant, Nav1.4-WCW was handled in pCap. CRY2-Sac2 was subcloned into pMAX(+) for expression in mammalian cells, or the generation of cRNA for use in Xenopus oocytes. The open reading frame of pseudojanin was designed with an N-terminal CRY2-tag in the pMAX(+) vector and was generated by Genscript (Piscataway, NY).
Human embryonic kidney (HEK293T) cells were acquired from American Type Culture Collection (ATCC, Cat #CRL-3216) and were maintained in Dulbecco's modified Eagle's medium (ATCC) supplemented with 100 units/ml penicillin, 100 μg/ml streptomycin, and 10% (vol/vol) fetal bovine serum. Cells were routinely confirmed to be mycoplasma free via PCR and Hoescht stain. The cells were incubated in a 37° C., humified incubator supplemented with 5% CO2. For our experiments, cells were seeded on glass coverslips in 35 mm culture dishes at least one day before transfection. Cells were transiently transfected with rNav1.4, Navβ1, CIBN-CAAX and CRY2-5-PtaseOCRL or CRY2-pseudojanin, along with the near-infrared PI(4,5)P2 biosensor iRFP-PHPLCδ1 as indicated, in OptiMEM using polyethyleneimine (PEI) for 1-2 hours at a ratio of 1 μg of DNA to 4 μL PEI. The near red fluorescent protein, mCherry, was typically used as a transfection marker. The cells were studied 24-48 hours after transfection.
Whole-cell patch clamp. HEK293T cells were studied by whole cell patch-clamp. Currents were recorded with a Tecella Pico-2 amplifier (Tecella) controlled using WinWCP software (University of Strathclyde). Currents were low pass (Bessel) filtered at 9 kHz and digitized at 50 kHz. […] The cells were perfused using a multichannel gravity-driven perfusion manifold (Warner) with an extracellular solution containing (in mM): 130 NaCl, 5 CsCl, 1.2 MgCl2·6H2O, 1.5 CaCl2), 8 Glucose, 10 HEPES. Data was collected from cells with a series resistance less than 15 MQ. The junction potential was less than 3 mV and was not compensated.
Current-voltage (I-V) relationships were evoked from a holding potential of −90 mV by 400 ms test pulses between −80 and 50 mV, in 5 mV increments. Steady-state inactivation was studied by holding the cells at −140 mV and then comparing currents evoked by 50 ms test pulses between −140 mV and 30 mV to those evoked by a 100 ms prepulse to […]. A 10 s interpulse interval was used in both cases. Normalized peak current values are plotted against the prepulse potential (mV). To quantify voltage-dependence, the data were normalized, plotted against the driving force to generate normalized conductance-voltage relationships (G-V) that were fit using a Boltzmann function, I=IMAX/(1+exp[V−V ½/K]), where IMAX is the maximum current and K is the slope factor. Recovery from fast inactivation was studied by holding cells at −100 mV and comparing currents evoked by a pair of 50 ms test step to −30 mV separated by an interpulse interval that increased in duration by 5 ms increments per sweep. The time constant for recovery from inactivation (τinact) was obtained from mono-exponential fits of the normalized current amplitude to the recovery time using It=Imax+A[e^−t/τ], where ‘A’ is the amplitude of components and ‘t’ is time. Whole-cell currents were normalized to cell capacitance. Mean±SEM capacitance values were 12±4 pF for HEK293T cells. […]

IK1 (Kir2.1) = molecular target: T2, IK1 (Kir2.1) (Rattus norvegicus, UniProt Q64273); conditions: diC8-PI(4,5)P2 in recording pipette, concentration dependent; RVCMs, 2% O2; cited from earlier work
T2 construct: endogenous in cells; host or cells: rat ventricular cardiomyocytes (RVCMs)
T2 sequence (Q64273 1-427): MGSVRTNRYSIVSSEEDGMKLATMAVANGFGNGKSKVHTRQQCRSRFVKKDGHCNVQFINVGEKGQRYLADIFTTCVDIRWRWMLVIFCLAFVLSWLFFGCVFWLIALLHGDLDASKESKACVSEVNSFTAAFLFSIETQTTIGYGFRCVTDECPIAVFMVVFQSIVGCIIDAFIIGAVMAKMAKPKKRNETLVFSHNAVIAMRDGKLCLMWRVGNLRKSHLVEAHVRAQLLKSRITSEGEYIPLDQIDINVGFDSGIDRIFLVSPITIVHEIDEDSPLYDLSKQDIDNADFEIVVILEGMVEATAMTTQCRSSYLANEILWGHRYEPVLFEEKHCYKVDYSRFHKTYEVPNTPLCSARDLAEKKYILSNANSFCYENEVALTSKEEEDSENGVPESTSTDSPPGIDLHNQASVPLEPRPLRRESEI

[1] = 200 μM diC8-PIP2 in patch pipette
[2] = 200 μM diC8PI(4,5)P2, CRY2-PJ cells
[3] = 200 μM diC8PI(4,5)P2 vs CRY2-PJ BL
[4] = CRY2-5POCRL, BL + 200 μM diC8PI(4,5)P2
[5] = CRY2-5POCRL, Control + 200 μM diC8PI(4,5)P2
[6] = CRY2-PJ, BL + 200 μM diC8PI(4,5)P2
[7] = CRY2-PJ, Control + 200 μM diC8PI(4,5)P2

T1 sequence (P15390 whole entry): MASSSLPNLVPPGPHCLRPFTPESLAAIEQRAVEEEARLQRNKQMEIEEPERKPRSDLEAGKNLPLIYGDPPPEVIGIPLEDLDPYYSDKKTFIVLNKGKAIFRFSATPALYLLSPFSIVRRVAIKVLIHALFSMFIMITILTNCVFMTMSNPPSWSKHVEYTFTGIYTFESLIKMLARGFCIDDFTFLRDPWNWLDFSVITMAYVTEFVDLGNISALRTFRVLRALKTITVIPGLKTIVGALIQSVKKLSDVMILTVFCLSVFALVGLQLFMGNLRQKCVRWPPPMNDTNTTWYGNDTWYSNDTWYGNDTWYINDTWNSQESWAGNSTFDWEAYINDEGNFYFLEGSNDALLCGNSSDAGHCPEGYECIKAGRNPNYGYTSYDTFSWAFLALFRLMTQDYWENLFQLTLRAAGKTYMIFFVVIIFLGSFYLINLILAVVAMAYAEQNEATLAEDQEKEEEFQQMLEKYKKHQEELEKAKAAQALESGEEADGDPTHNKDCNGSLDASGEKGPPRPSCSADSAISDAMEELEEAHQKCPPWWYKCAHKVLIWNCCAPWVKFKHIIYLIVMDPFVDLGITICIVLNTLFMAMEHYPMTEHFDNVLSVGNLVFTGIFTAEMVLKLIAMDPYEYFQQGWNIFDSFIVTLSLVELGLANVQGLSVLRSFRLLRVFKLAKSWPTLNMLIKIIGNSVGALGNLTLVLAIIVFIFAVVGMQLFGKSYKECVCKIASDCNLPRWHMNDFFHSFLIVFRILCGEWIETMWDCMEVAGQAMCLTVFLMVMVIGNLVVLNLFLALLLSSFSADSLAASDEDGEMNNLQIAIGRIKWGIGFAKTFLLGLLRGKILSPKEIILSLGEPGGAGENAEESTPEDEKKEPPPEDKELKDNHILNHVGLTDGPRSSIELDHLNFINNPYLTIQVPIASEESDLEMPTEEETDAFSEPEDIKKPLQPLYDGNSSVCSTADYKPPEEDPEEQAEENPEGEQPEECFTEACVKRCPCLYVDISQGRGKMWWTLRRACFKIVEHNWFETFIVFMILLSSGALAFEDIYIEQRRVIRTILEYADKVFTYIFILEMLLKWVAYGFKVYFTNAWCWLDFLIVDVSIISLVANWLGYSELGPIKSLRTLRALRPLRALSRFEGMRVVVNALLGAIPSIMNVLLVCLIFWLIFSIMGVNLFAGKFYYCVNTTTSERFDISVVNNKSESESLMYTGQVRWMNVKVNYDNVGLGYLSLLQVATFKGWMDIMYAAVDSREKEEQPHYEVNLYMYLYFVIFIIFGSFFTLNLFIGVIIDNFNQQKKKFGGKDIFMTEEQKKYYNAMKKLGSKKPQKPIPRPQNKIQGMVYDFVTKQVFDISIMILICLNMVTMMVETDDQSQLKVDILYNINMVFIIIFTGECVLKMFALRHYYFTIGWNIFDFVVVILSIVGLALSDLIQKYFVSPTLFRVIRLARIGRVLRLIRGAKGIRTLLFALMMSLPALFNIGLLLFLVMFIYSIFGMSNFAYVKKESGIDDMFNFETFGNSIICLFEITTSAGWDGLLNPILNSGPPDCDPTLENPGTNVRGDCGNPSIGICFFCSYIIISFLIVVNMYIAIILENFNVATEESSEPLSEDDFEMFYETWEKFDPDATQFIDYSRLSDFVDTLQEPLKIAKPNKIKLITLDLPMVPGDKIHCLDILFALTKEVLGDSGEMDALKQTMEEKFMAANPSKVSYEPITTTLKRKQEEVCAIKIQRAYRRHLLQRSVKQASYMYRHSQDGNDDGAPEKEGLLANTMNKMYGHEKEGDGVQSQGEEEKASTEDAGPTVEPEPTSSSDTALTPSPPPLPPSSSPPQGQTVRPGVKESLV
T1 sequence (Q07699 19-218 partner): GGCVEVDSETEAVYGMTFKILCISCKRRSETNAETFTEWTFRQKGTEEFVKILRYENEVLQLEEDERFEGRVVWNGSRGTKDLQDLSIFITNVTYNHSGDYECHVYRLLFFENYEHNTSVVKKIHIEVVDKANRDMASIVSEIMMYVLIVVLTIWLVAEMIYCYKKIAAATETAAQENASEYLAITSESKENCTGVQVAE

CCCCCCCC(=O)OC[C@H](COP(=O)(O)O[C@@H]1[C@H](O)[C@H](O)[C@@H](OP(=O)(O)O)[C@H](OP(=O)(O)O)[C@H]1O)OC(=O)CCCCCCC [diC8-PIP2]
effect on V½ACT of Nav1.4 (Nav1.4; [1]): rightward shift
effect on V½SSI of Nav1.4 (Nav1.4; [1]): no effect
effect on CRY2-5POCRL effects on voltage-dependent gating (Nav1.4; 200 μM diC8PI(4,5)P2): precluded
effect on CRY2-PJ photoactivation effects on V½act (Nav1.4; 200 μM diC8PI(4,5)P2): ameliorated
right shift in V½act (Nav1.4; 200 μM diC8PI(4,5)P2, CRY2-5POCRL cells): ~5 mV
effect on increase in the magnitude of the window current (Nav1.4; 200 μM diC8PI(4,5)P2, CRY2-PJ): abolished
right-shift in V½SSI compared to untreated cells (Nav1.4; [2]): ~3 mV
right-shift in V½act compared to untreated cells (Nav1.4; [2]): −5.5 mV
overall excursion in mean V½ACT between diC8PI(4,5)P2 treated cells and control cells after photoactivation (Nav1.4; 200 μM diC8PI(4,5)P2 vs CRY2-5POCRL BL): −12.5±3 mV
change in mean V½act between diC8PI(4,5)P2 treated cells and control cells after dephosphorylation (Nav1.4; [3]): −16±2 mV
shift in mean V½SSI between diC8PI(4,5)P2 treated cells and control cells after dephosphorylation (Nav1.4; [3]): −5.4±2 mV
KAct (Nav1.4; [4]): 5.2 ± 0.3 mV
KSSI (Nav1.4; [4]): −5.1 ± 1^ mV
V½SSI (Nav1.4; [4]): −57 ± 1 mV
V½act (Nav1.4; [4]): −32 ± 1 mV
tau (fast inactivation) (Nav1.4; [4]): 7.4 ± 0.6 ms
IPEAK (Nav1.4; CRY2-5POCRL, BL + 200 μM diC8PI(4,5)P2, −20 mV): −268 ± 25 pA/pF
IPEAK (Nav1.4; CRY2-5POCRL, BL + 200 μM diC8PI(4,5)P2, −40 mV): −202 ± 21 pA/pF
IPEAK (Nav1.4; CRY2-5POCRL, BL + 200 μM diC8PI(4,5)P2, −60 mV): −19 ± 4 pA/pF
ILATE (Nav1.4; [4]): 0.27 ± 0.02%
KAct (Nav1.4; [5]): 5.0 ± 0.2 mV
KSSI (Nav1.4; [5]): −5.0 ± 2^ mV
V½SSI (Nav1.4; [5]): −58 ± 2 mV
V½act (Nav1.4; [5]): −32 ± 1 mV
tau (fast inactivation) (Nav1.4; [5]): 6.0 ± 0.3 ms
IPEAK (Nav1.4; CRY2-5POCRL, Control + 200 μM diC8PI(4,5)P2, −20 mV): −274 ± 32 pA/pF
IPEAK (Nav1.4; CRY2-5POCRL, Control + 200 μM diC8PI(4,5)P2, −40 mV): −186 ± 28 pA/pF
IPEAK (Nav1.4; CRY2-5POCRL, Control + 200 μM diC8PI(4,5)P2, −60 mV): −23 ± 6 pA/pF
ILATE (Nav1.4; [5]): 0.26 ± 0.02%
KAct (Nav1.4; [6]): 5.0 ± 1.0 mV
KSSI (Nav1.4; [6]): −5.1 ± 0.5 mV
V½SSI (Nav1.4; [6]): −54 ± 2 mV
V½act (Nav1.4; [6]): −33 ± 4 mV
tau (fast inactivation) (Nav1.4; [6]): 5.1 ± 0.3 ms
IPEAK (Nav1.4; CRY2-PJ, BL + 200 μM diC8PI(4,5)P2, −20 mV): −272 ± 24 pA/pF
IPEAK (Nav1.4; CRY2-PJ, BL + 200 μM diC8PI(4,5)P2, −40 mV): −209 ± 22 pA/pF
IPEAK (Nav1.4; CRY2-PJ, BL + 200 μM diC8PI(4,5)P2, −60 mV): −23 ± 3 pA/pF
ILATE (Nav1.4; [6]): 0.38 ± 0.03%
KAct (Nav1.4; [7]): 4.0 ± 0.7 mV
KSSI (Nav1.4; [7]): −4.2 ± 1.0 mV
V½SSI (Nav1.4; [7]): −55 ± 4 mV
V½act (Nav1.4; [7]): −33 ± 3 mV
tau (fast inactivation) (Nav1.4; [7]): 4.7 ± 0.2 ms
IPEAK (Nav1.4; CRY2-PJ, Control + 200 μM diC8PI(4,5)P2, −20 mV): −264 ± 18 pA/pF
IPEAK (Nav1.4; CRY2-PJ, Control + 200 μM diC8PI(4,5)P2, −40 mV): −194 ± 24 pA/pF
IPEAK (Nav1.4; CRY2-PJ, Control + 200 μM diC8PI(4,5)P2, −60 mV): −19 ± 2 pA/pF
ILATE (Nav1.4; CRY2-PJ, Control + 200 μM diC8PI(4,5)P2, pulse to −20 mV): 0.37 ± 0.1%
effect on hypoxic inhibition of IK1 (IK1 (Kir2.1)): opposed
